Each structure is given as a SMILES string.

The subject of test [1] is ptosis in mice induced by tetrabenazine. Nature of the test: Tetrabenazine antagonism (ptosis in mice induced by tetrabenazine). It is filed as in vivo. As to conditions: Mus musculus, ip, compound intraperitoneally, 20 mg/kg of tetrabenazine intraperitoneally, read-out: ED50 (dose at which the ptosis induced by tetrabenazine is reduced to 50%). The protocol:
(§1) Some test results for the new compounds of the general formula I which were tested for anxiolytic, nootropic and antidepressive properties are given below. The pilot tests used were inhibition of footshock induced aggression (Tedeschi et al., J. Pharmacol. Exp. Ther. 129, p. 28-34, 1954), for the anxiolytic action and the antitetrabenazine test (J. L. Howard et al., in: Antidepressants: Neurochemical, Behavioral and Clinical Perspectives, edited by S. J. Enna et al., Raven Press N.Y., pages 107-120, 1981) and amphetamine potentiation test (J. L. Howard et al., in: Antidepressants: Neurochemical, Behavioral and Clinical Perspectives, edited by S. J. Enna et al., Raven Press N.Y., pages 107-120, 1981) for the antidepressive action.
Substances having an antidepressive action antagonize the ptosis in mice induced by tetrabenazine. The ED50 value indicates the dose at which the ptosis induced by 20 mg/kg of tetrabenazine intraperitoneally is reduced to 50%.

In test [2] the test system is amphetamine-induced stereotype behavior in rats. The test can be described thus: Amphetamine potentiation (amphetamine-induced stereotype behavior in rats). It is filed as in vivo. As to conditions: Rattus norvegicus, ip, compound intraperitoneally, 2 mg/kg of DL-amphetamine sulphate intravenous, read-out: ED50 (dose at which the amphetamine-induced behavior is intensified by 50%). The protocol: as §1
Substances having an antidepressive action potentiate the amphetamine-induced stereotype behavior in rats.
The ED50 value given is the dose at which the amphetamine-induced behavior is intensified by 50% following intravenous administration of 2 mg/kg of DL-amphetamine sulphate.

One may read the ED50 as the midpoint of the dose-response relation. Take `CN1Cc2c(ccc3c2NC(=O)C3=O)C(c2ccc(F)cc2)C1` (centres unmarked) [1 a]: the median effective dose (ED50) in test [1] worked out at 1 mg/kg.
Same read-out and setting: in the case of `CN1Cc2c(ccc3c2NC(=O)C3=O)C(c2ccccc2)C1` (centres unmarked) [1 b] it was 2 mg/kg.
As to `CN1Cc2c(ccc3cc[nH]c23)C(c2ccccc2)C1` (centres unmarked) [2 a], the median effective dose (ED50) in test [1] came to 0.3 mg/kg; in test [2], 2.4 mg/kg.
Consider `CN1Cc2c(ccc3cc[nH]c23)C(c2ccc(F)cc2)C1` (centres unmarked) [2 b], for which the median effective dose (ED50) in test [1] stood at 0.2 mg/kg; in test [2], 3.9 mg/kg.
In the case of `CN1Cc2c(ccc3c2NCC3)C(c2ccccc2)C1` (centres unmarked) [3 a], the 50% effective dose (ED50) was 0.1 mg/kg in test [1] and 1.2 mg/kg in test [2].
For the compound `CN1Cc2c(ccc3c2NCC3)C(c2ccc(F)cc2)C1` (centres unmarked) [3 b], the ED50 in test [1] worked out at 0.01 mg/kg; in test [2], 2.2 mg/kg.
Take `CN1Cc2c(ccc3c2N(C)CC3)C(c2ccc(F)cc2)C1` (centres unmarked) [Compound 4, 1,8-Dimethyl-6-(fluorophenyl)-2,3,6,7,8,9-hexahydro-1H-pyrido[4,3-g]indole]: in test [1], the median effective dose (ED50) turned out to be 0.01 mg/kg.

These data come from patent US4564613A, “Pyridoindole derivatives, compositions and use” (Troponwerke GmbH & Co., priority 1983, dated 1986).
